What was measured:
[1] = tested on: Primary cultured mesothelioma; test: Apoptosis analysis (Annexin V FITC, flow cytometry); format: cell-based, human; details: 3 days
Procedure: Fresh cancer tissue and adjacent normal tissue from patients undergoing curative primary resection of their tumors were collected at the time of surgery (IRB approval H8714-15319-040), and immediately snap-frozen in liquid nitrogen. These tissue samples were kept at −170° C. in a liquid nitrogen freezer until further use. Primary tissue cultures were prepared as follows: Fresh cancer tissue was obtained with consent from patients undergoing resection, cut into small pieces (1-2 mm in diameter), and then digested with Collagenase A (Roche Applied Science, Indianapolis, Ind.) at room temperature for 2 hours according to manufacture's protocol. Single cells from the digestion were spun down and the cell pellets were washed twice using RPMI 1640 supplemented with 10% fetal bovine serum, penicillin (100 IU/ml) and streptomycin (100 μg/ml). Then, the cells were resuspended in the same medium and cultured in 6-well plates at 37° C. in a humid incubator with 5% CO2 until they were ready for further treatments.
Apoptosis was analyzed by using an Annexin V FITC Apoptosis Detection Kit (Biosource, Camarillo, Calif.), according to the manufacturer's protocol. After treatment with different small molecule compounds at various concentrations for about 3 days, cells were harvested by trypsinization, stained and immediately analyzed by flow cytometry (FACScan; Decton Dickinson, Franklin Lake, N.J.). Early apoptotic cells with exposed phosphatidylserine but intact cell membranes will bind to Annexin V-FITC, but not propidium iodide (PI). Cells in necrotic or late apoptotic stages will be labeled with both Annexin V-FITC and PI. “% apoptotic cells” or “% apoptosis” refers to the combined early and late apoptotic cells.
Next, flow cytometry was used to examine apoptosis after the treatment of small molecule compound FN1-5 at different doses (10 μM, 30 μM and 50 μM) for 3 days in primary cultured human mesothelioma cells freshly made from tissue samples.

[2] = tested on: hedgehog pathway in melanoma cell line LOX, colon cancer cell line SW480 and primary cultured human mesothelioma cells; test: Semi-quantitative RT-PCR of Hedgehog pathway genes; format: cell-based; details: data not shown
Procedure: Total RNA from cell lines or tissue samples was isolated using Qiagen RNeasy Mini Kit (Valencia, Calif.). RT-PCR was performed in GeneAmp PCR system 2700 (Applied Biosystems, Foster City, Calif.) using One-step RT-PCR Kit from Invitrogen Life Technologies (Carlsbad, Calif.). Primers for RT-PCR were obtained from Operon Technologies Inc. (Alameda, Calif.). Primer sequences for amplifying different genes in Hedgehog and Wnt signaling pathways are listed in the table below (Table 1; F, forward primer; R, reverse primer). The expected size of the PCR product is indicated for each primer pair. GAPDH was used as internal control.

[3] = tested on: human Wnt2 promoter in NSCLC cell line A549; test: Wnt2 promoter-luciferase reporter assay; format: cell-based; details: for Wnt2 promoter activity: A549, 30 μM, 18-24 hours
Procedure: One day before transfection, cells (1×10^5) were plated in 12-well plates with growth medium without antibiotics. When cells reached 80-90% of confluence they were co-transfected using 0.5 μg of each promoter construct in pGL3Basic vector and 0.025 μg pRL-TK Vector (Promega; Madison, Wis.) containing Renilla Luciferase as an internal control for the transformation efficiency. Lipofectamine 2000™ (Invitrogen Life Technologies) was used to mediate transfection for about 6 hours. Then the medium was replaced with fresh medium containing various small molecule compounds at a concentration of 30 μM, and the resulting cells were cultured for an additional 18-24 hours and subjected to luciferase assay. Briefly, cells were lysed in a lysis buffer and Firefly and Renilla Luciferase activities in cells of each well, were measured using Dual-Luciferase Assay System (Promega) and an illuminometer. The measured luciferase activities were normalized to pRL-TK Vector activity and were given relative to the basal activity of empty pGL3-Basic Vector, which was set to unity. The data shown represent mean values (±S.D.). All measurements were performed in triplicate and repeated in at least three independent experiments. The human Wnt-2 promoter-luciferase construct, the human SOCS3 promoter-Luciferase construct and the human Gremlin promoter-luciferase construct were cloned and characterized in the laboratory of Dr. Jablons at the University of California, San Francisco (San Francisco, Calif.; He et al., Biochem Biophy Res Comm, 2003; and unpublished data). The 6GLI-TKO-luciferase construct (containing 6 repeats of consensus GLI DNA binding sequence) was kindly provided by Dr. Matthias Hebrok's laboratory at the University of California, San Francisco (San Francisco, Calif.).
To examine the specificity of the small molecule compounds of the invention, the compounds were tested for regulate the expression of Gli down-stream target genes. […] The human Wnt2 promoter was cloned and found to contain putative Gli-DNA binding sites within its promoter region (data not shown). […]

[4] = tested on: human prostate cancer cell line LnCAP; test: Cell survival assay (crystal violet); format: cell-based; details: FN1-8 at 50 μM, FN1-5 30 and 50 μM
Procedure: (§1) Typically, the small molecule compounds of the present invention were dissolved in DMSO at a concentration of 30 mM. The small molecule compounds were then tested under cell culture conditions at different concentrations ranging from 0, 10, 30, 50, to 100 uM. To determine cell survival after treatment, the cells were incubated with the small molecule compounds in 6-well plates for about 3 days. After removal of the cell culture medium, 1-ml of 0.5% crystal violet solution (prepared in 20% ethanol and 20% methanol) was added to stain the cells for 5 min. Then the crystal violet solution was rinsed clean with tap water. Cell survival was estimated based on the density of crystal stained plates.
The cell-based cytotoxicity assay described herein was used to determine the effect of small molecule compounds FN1-5 and FN1-8 on the human prostate cancer cell line LnCAP. Viability of LnCAP cells was analyzed after treatment with 30 and 50 μM FN1-5 and after treatment with 10, 30, and 50 μM FN1-8.

normal human renal cells = test: Cell survival assay (crystal violet); format: cell-based; details: FN1-5 30 and 50 μM; FN1-8 10, 30, and 50 μM; 3 days
Procedure: as §1
The cell killing effect of small molecule compounds FN1-5, and FN1-8 at different doses was examined in normal human renal cells. Normal renal cells were plated in 6-well plates and incubated with 30 and 50 μM of compound FN1-5 and 10, 30, and 50 μM FN1-8 for 3 days, in the same manner as described herein for similar other experiments.

melanoma cell line LOX = test: Cell survival assay (crystal violet); format: cell-based, human; details: for cell killing effect: 3 days
Procedure: as §1
The effect of small molecule compounds FN1-5, FN1-8, FN1-7, FN1-9U, and FN1-9S was tested using a cytotoxicity assay and the melanoma cell line LOX. LOX cells were plated in 6-well plates and incubated with 100 μM of each compound (stocks were dissolved in DMSO at 30 mM) for 3 days, as described herein. […] Live cells were stained by 0.5% crystal violet.
Cell killing was also tested using human melanoma cell line LOX and different doses of the small molecule compounds FN1-5 and FN1-8. LOX cells were plated in 6-well plates and incubated with 10, 30, and 50 μM of each compound for 3 days, as described herein.

Compound	% of apoptotic cells ([1]; 10 μM) [%]	% of apoptotic cells ([1]; 30 μM) [%]	% of apoptotic cells ([1]; 50 μM) [%]	modulation of hedgehog pathway (RT-PCR) [2]	Wnt2 promoter activity [3]	Wnt2 expression (Wnt2 promoter-luciferase reporter activity assay) ([3]; after FN1-8 treatment, data not shown)	cell killing [4]	cell killing effect in normal cells (normal human renal cells)	cell killing effect (melanoma cell line LOX; 50 μM)	cell killing effect (melanoma cell line LOX; 100 μM)	cell killing potency compared with FN1-5 (melanoma cell line LOX; compared at 30 μM)
O=C(NCCc1ccc(O)cc1)C1C(c2ccccc2)=NN(c2ccccc2)C1c1ccccc1 (centres unmarked) [FN1-8, N-(2-(4-Hydroxyphenyl)ethyl)-1,3,5-triphenyl-4,5-dihydro-pyrazole-4-carboxyamide]	13.2	14.7	33.6	modulate the hedgehog pathway	down-regulate Wnt2 promoter activity dramatically	down-regulated	dramatic cell killing	No noticeable cell killing effect	Dramatic cell killing effect	dramatic cell killing effect	more potent than FN1-5
O=C(NCCCCCO)C1C(c2ccccc2)=NN(c2ccccc2)C1c1ccccc1 (centres unmarked) [FN1-5, N-(5-Hydroxypentyl)-1,3,5-triphenyl-4,5-dihydro-pyrazole-4-carboxyamide]	12.3	15.8	18.3	modulate the hedgehog pathway	down-regulate Wnt2 promoter activity dramatically		much lesser cell killing effect	No noticeable cell killing effect	Dramatic cell killing effect	dramatic cell killing effect	

— patent US7714014B2, “Targeting GLI proteins in human cancer by small molecules” (The Regents of the University of California, priority 2005, dated 2010)
